Common to all, as to assay type: in vivo
In test [1] the test system is Avena fatua (AVEFA). The test is described as follows: Post-emergence herbicidal activity, glasshouse pot test. The note with it: Avena fatua, 312 h, rate 250 g/ha, evaluated after 13 days, read-out: Post-emergence activity AVEFA (100=total damage to plant; 0=no damage to plant). In short, it runs like this: (§1)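 Plants in standard-soil pots, glasshouse at 24/16° C, 14 h photoperiod, 65% humidity. Aqueous spray (acetone/water 50:50 formulation, 0.5% Tween 20) applied pre-emergence at day 1 or post-emergence at day 8. Percent damage recorded after 13 days.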

Test [2] concerns Alopecurus myosuroides (ALOMY). The test is described as above. The note with it: Alopecurus myosuroides, 312 h, rate 250 g/ha, evaluated after 13 days, read-out: Post-emergence activity ALOMY (100=total damage to plant; 0=no damage to plant). The method in brief: as §1
Test [3] relates to Echinochloa crus-galli (ECHCG). The description is as above. The note with it: Echinochloa crus-galli, 312 h, rate 250 g/ha, evaluated after 13 days, read-out: Post-emergence activity ECHCG (100=total damage to plant; 0=no damage to plant). In short, it runs like this: as §1
The subject of test [4] is Lolium perenne (LOLPE). The description is as above. The note with it: Lolium perenne, 312 h, rate 250 g/ha, evaluated after 13 days, read-out: Post-emergence activity LOLPE (100=total damage to plant; 0=no damage to plant). The method in brief:
as §1

Test [5] deals with Avena fatua (AVEFA). Description: Pre-emergence herbicidal activity, glasshouse pot test. The note with it: Avena fatua, 312 h, Rate 250 g/ha, evaluated after 13 days, read-out: Pre-emergence activity AVEFA (100=total damage to plant; 0=no damage to plant). The method in brief:
as §1

Test [6] deals with Alopecurus myosuroides (ALOMY). The description is as above. The note with it: Alopecurus myosuroides, 312 h, Rate 250 g/ha, evaluated after 13 days, read-out: Pre-emergence activity ALOMY (100=total damage to plant; 0=no damage to plant). In short, it runs like this: as §1
In test [7] the test system is Echinochloa crus-galli (ECHCG). Described as above. The note with it: Echinochloa crus-galli, 312 h, Rate 250 g/ha, evaluated after 13 days, read-out: Pre-emergence activity ECHCG (100=total damage to plant; 0=no damage to plant). The method in brief: as §1
Test [8] relates to Lolium perenne (LOLPE). The test is described as above. The note with it: Lolium perenne, 312 h, Rate 250 g/ha, evaluated after 13 days, read-out: Pre-emergence activity LOLPE (100=total damage to plant; 0=no damage to plant). In short, it runs like this: as §1

Molecules are shown by their SMILES.

For `CCc1ccc(Oc2cnc3cc(Cl)ccc3n2)cc1C1=C(O)C(C)(C)OC(C)(C)C1=O` [Example A-55], the pest or weed control at 250 g/ha in the test on Avena fatua (AVEFA) [1] (glasshouse) came out at 100%; in test [2] (glasshouse) it was 100%; in test [3] (glasshouse) it was 100%; in the test on Lolium perenne (LOLPE) [4] (glasshouse) it was 100%; in the test with Avena fatua (AVEFA) [5] (pre-emergence spray), 90%; in test [6] (pre-emergence spray) it was 80%. Further, the pest or weed control at 250 g/ha (in test [7] (pre-emergence spray); in the test on Lolium perenne (LOLPE) [8] (pre-emergence spray)) was 100% throughout.

As to `CCc1ccc(Oc2nc3c(Cl)cccc3s2)cc1C1=C(O)C(C)(C)OC(C)(C)C1=O` [Example A-193], the pest or weed control at 250 g/ha with Avena fatua (AVEFA) [1] (glasshouse) was found to be 10%; in test [2] (glasshouse), 80%; in test [3] (glasshouse), 100%; with Lolium perenne (LOLPE) [4] (glasshouse), 100%; with Avena fatua (AVEFA) [5] (pre-emergence spray) it was 20%; in test [6] (pre-emergence spray) it was 30%. In addition, the pest or weed control at 250 g/ha is 90% in test [7] (pre-emergence spray) and 70% in the test on Lolium perenne (LOLPE) [8] (pre-emergence spray).

Turning to `CCc1ccc(Oc2nc3ccc(C(F)(F)F)cc3s2)cc1C1=C(O)C(C)(C)OC(C)(C)C1=O` [Example A-219], the pest or weed control at 250 g/ha with Avena fatua (AVEFA) [1] (glasshouse) worked out at 100%; in test [2] (glasshouse), 90%; in test [3] (glasshouse), 100%; in the test with Lolium perenne (LOLPE) [4] (glasshouse), 90%; with Avena fatua (AVEFA) [5] (pre-emergence spray) it was 30%; in test [6] (pre-emergence spray) it was 50%. The pest or weed control at 250 g/ha was determined as 90% in test [7] (pre-emergence spray) and 80% in the test with Lolium perenne (LOLPE) [8] (pre-emergence spray).

Take `CCc1ccc(Oc2c(F)ncc(Cl)c2F)cc1C1=C(O)C(C)(C)OC(C)(C)C1=O` [Example A-192]: the pest or weed control at 250 g/ha was 10% in the test with Avena fatua (AVEFA) [1] (glasshouse); 0% in test [2] (glasshouse); 40% in test [3] (glasshouse); 10% in the test with Lolium perenne (LOLPE) [4] (glasshouse); 0% in the test with Avena fatua (AVEFA) [5] (pre-emergence spray); 0% in test [6] (pre-emergence spray). In addition, the pest or weed control at 250 g/ha in test [7] (pre-emergence spray) is 20%; with Lolium perenne (LOLPE) [8] (pre-emergence spray) it was 0%.

`CCc1ccc(Oc2nc3c(Cl)cc(Cl)cc3s2)cc1C1=C(O)[C@H]2CC[C@H](C2)C1=O` [Example A-345]: the pest or weed control at 250 g/ha in the test on Avena fatua (AVEFA) [1] (glasshouse) came to 100%; in test [2] (glasshouse), 80%; in test [3] (glasshouse), 100%; in the test with Lolium perenne (LOLPE) [4] (glasshouse) it was 100%; with Avena fatua (AVEFA) [5] (pre-emergence spray), 60%; in test [6] (pre-emergence spray), 90%. Moreover, the pest or weed control at 250 g/ha (in test [7] (pre-emergence spray); with Lolium perenne (LOLPE) [8] (pre-emergence spray)) was 100% throughout.

Take `CCc1ccc(Oc2cc(Cl)cc(Cl)n2)cc1C1=C(O)C(C)(C)OC(C)(C)C1=O` [Example A-145]: the pest or weed control at 250 g/ha came to 20% in the test with Avena fatua (AVEFA) [1] (glasshouse); 20% in test [2] (glasshouse); 70% in test [3] (glasshouse); 20% in the test on Lolium perenne (LOLPE) [4] (glasshouse); 0% in the test with Avena fatua (AVEFA) [5] (pre-emergence spray); 10% in test [6] (pre-emergence spray). Besides, the figures for the pest or weed control at 250 g/ha (in test [7] (pre-emergence spray); in the test with Lolium perenne (LOLPE) [8] (pre-emergence spray)) were 20% and 10%, respectively.

As to `CC1(C)OC(C)(C)C(O)=C(c2cc(Oc3cnc4cc(F)ccc4n3)ccc2C2CC2)C1=O` [Example A-372], the pest or weed control at 250 g/ha came to 100% in the test with Avena fatua (AVEFA) [1]; 100% in test [2]; 100% in test [3]; 100% with Lolium perenne (LOLPE) [4]; 90% with Avena fatua (AVEFA) [5] (pre-emergence); 70% in test [6] (pre-emergence). Also, the pest or weed control at 250 g/ha in test [7] (pre-emergence) stood at 90%; in the test with Lolium perenne (LOLPE) [8] (pre-emergence), 100%.

Regarding `CCc1ccc(Oc2ncc(I)cc2Cl)cc1C1=C(O)C(C)(C)OC(C)(C)C1=O` [Example A-157], the pest or weed control at 250 g/ha came to 100% in the test on Avena fatua (AVEFA) [1] (glasshouse); 90% in test [2] (glasshouse); 100% in test [3] (glasshouse); 90% in the test with Lolium perenne (LOLPE) [4] (glasshouse); 30% in the test on Avena fatua (AVEFA) [5] (pre-emergence spray); 40% in test [6] (pre-emergence spray). Besides, the results for the pest or weed control at 250 g/ha (in test [7] (pre-emergence spray); in the test on Lolium perenne (LOLPE) [8] (pre-emergence spray)) were 80% and 50%, respectively.

As for `CCc1ccc(Oc2cc(OC)c(Cl)nn2)cc1C1=C(O)C(C)(C)OC(C)(C)C1=O` [Example A-169], the pest or weed control at 250 g/ha in the test with Avena fatua (AVEFA) [1] (glasshouse) was found to be 30%; in test [2] (glasshouse) it was 20%; in test [3] (glasshouse) it was 30%; with Lolium perenne (LOLPE) [4] (glasshouse), 20%; with Avena fatua (AVEFA) [5] (pre-emergence spray), 0%; in test [6] (pre-emergence spray), 20%. Besides, the pest or weed control at 250 g/ha in test [7] (pre-emergence spray) was determined as 30%; in the test with Lolium perenne (LOLPE) [8] (pre-emergence spray) it was 10%.

Turning to `CCc1ccc(Oc2nc3ccccc3nc2C(F)(F)F)cc1C1=C(O)C(C)(C)OC(C)(C)C1=O` [Example A-174], the pest or weed control at 250 g/ha stood at 100% in the test with Avena fatua (AVEFA) [1] (glasshouse); 90% in test [2] (glasshouse); 100% in test [3] (glasshouse); 90% in the test with Lolium perenne (LOLPE) [4] (glasshouse); 40% in the test on Avena fatua (AVEFA) [5] (pre-emergence spray); 50% in test [6] (pre-emergence spray). Further, the pest or weed control at 250 g/ha amounted to 100% in test [7] (pre-emergence spray) and 70% with Lolium perenne (LOLPE) [8] (pre-emergence spray).

As for `CCc1ccc(Oc2ccc(C(F)(F)F)cn2)cc1C1=C(O)C(C)(C)OC(C)(C)C1=O` [Example A-34], the pest or weed control at 250 g/ha (in the test with Avena fatua (AVEFA) [1] (glasshouse); in test [2] (glasshouse); in test [3] (glasshouse); in the test on Lolium perenne (LOLPE) [4] (glasshouse); with Avena fatua (AVEFA) [5] (pre-emergence spray); in test [6] (pre-emergence spray)) was 100% in each case. The pest or weed control at 250 g/ha (in test [7] (pre-emergence spray); with Lolium perenne (LOLPE) [8] (pre-emergence spray)) was 100% throughout.

On to `CCc1ccc(Oc2ncc(Cl)cc2Cl)cc1C1=C(O)C(C)(C)OC(C)(C)C1=O` [Example A-44], for which the pest or weed control at 250 g/ha (in the test on Avena fatua (AVEFA) [1] (glasshouse); in test [2] (glasshouse); in test [3] (glasshouse); with Lolium perenne (LOLPE) [4] (glasshouse); in the test on Avena fatua (AVEFA) [5] (pre-emergence spray); in test [6] (pre-emergence spray)) was 100% in each case. Moreover, the pest or weed control at 250 g/ha (in test [7] (pre-emergence spray); in the test with Lolium perenne (LOLPE) [8] (pre-emergence spray)) was 100% each time.

For `CCc1ccc(Oc2ccc(Cl)cc2C#N)cc1C1=C(O)C(C)(C)OC(C)(C)C1=O` [Example A-224], the pest or weed control at 250 g/ha in the test on Avena fatua (AVEFA) [1] (glasshouse) is 50%; in test [2] (glasshouse), 50%; in test [3] (glasshouse), 70%; in the test on Lolium perenne (LOLPE) [4] (glasshouse), 70%; with Avena fatua (AVEFA) [5] (pre-emergence spray), 10%; in test [6] (pre-emergence spray) it was 20%. The pest or weed control at 250 g/ha was 20% in test [7] (pre-emergence spray) and 30% in the test with Lolium perenne (LOLPE) [8] (pre-emergence spray).

Take `CCc1ccc(Oc2ccc(Cl)cc2)cc1C1=C(O)[C@@H]2CC[C@](C)(C1=O)C2(C)C` (single isomer, unassigned) [Example A-96]: the pest or weed control at 250 g/ha in the test with Avena fatua (AVEFA) [1] (glasshouse) came to 20%; in test [2] (glasshouse), 60%; in test [3] (glasshouse), 60%; with Lolium perenne (LOLPE) [4] (glasshouse), 30%; with Avena fatua (AVEFA) [5] (pre-emergence spray), 40%; in test [6] (pre-emergence spray) it was 70%. The pest or weed control at 250 g/ha in test [7] (pre-emergence spray) is 90%; in the test on Lolium perenne (LOLPE) [8] (pre-emergence spray), 100%.

Consider `CCc1ccc(Oc2cccc(F)n2)cc1C1=C(O)C(C)(C)OC(C)(C)C1=O` [Example A-43], for which the pest or weed control at 250 g/ha with Avena fatua (AVEFA) [1] (glasshouse) was determined as 0%; in test [2] (glasshouse), 0%; in test [3] (glasshouse), 70%; in the test on Lolium perenne (LOLPE) [4] (glasshouse), 20%; with Avena fatua (AVEFA) [5] (pre-emergence spray) it was 0%; in test [6] (pre-emergence spray), 10%. For the same compound, the pest or weed control at 250 g/ha in test [7] (pre-emergence spray) was 90%; with Lolium perenne (LOLPE) [8] (pre-emergence spray) it was 10%.
